pIC50: −log10 of the molar value.
Tests used:
Format in all cases: cell-based, human
[1] = system: Notch processing; assay: Notch reporter assay (HeLa 6xCBF1-Luc, NotchΔE); details: Homo sapiens, overnight
Protocol: The wild-type CBF1 binding element was cloned in front of the SV40 promoter-driven luciferase reporter construct of pGL3pro (Promega, Madison, WI, USA) using the following oligonucleotides: • CBF1 Fw (5’→3’): […] • CBF1 Rv (5’→3’): […]
Oligonucleotides were phosphorylated using T4 polynucleotide kinase and annealed (by heating to 90 °C and cooling to room temperature in a buffer containing 0.1 M NaCl). Plasmid pGL3pro was cleaved with BglII and dephosphorylated using alkaline phosphatase. The oligonucleotide pair was then ligated using T4 ligase with the linearized plasmid DNA. A clone containing 6 copies of the CBF1 element in front of the SV40 promoter was chosen. The 6xCBF1-RE/SV40 promoter was excised from pGL3 using XhoI and HindIII, and the fragment transferred to the pGL4.17 [luc2/Neo] vector (Promega) was opened with the same restriction enzymes.
The full length human Notch in plasmid pCMV6-XL5 (Origene, Rockville, MD, USA) was used to amplify a truncated form of Notch (NotchΔE) containing the 20-amino-acid (a.a.) signal sequence followed by 5 a.a. […]
HeLa cells stably transfected with the 6xCBF1-Luc reporter were transiently transfected with the NotchΔE construct (4 μg DNA/10^6 cells) using Lipofectamine 2000 (Thermo Fisher, Waltham, MA, USA) in 6-well plates. […] Chemiluminescence was then read on an EnVision plate reader (Perkin Elmer).

[2] = system: γ-secretase; assay: Immunoprecipitation / MALDI-TOF mass spectrometry of Aβ peptides in H4 cell media; details: 300 nM, overnight
Protocol: Human neuroglioma H4 cells stably expressing wild-type human APP751 were used for this assay. Briefly, cells were plated at 15,000 cells/well in 96-well plates and left to settle for 6 h (37 °C; 5 % CO2). Cells were then washed three times with Pro293™ chemically defined medium (Lonza, Walkersville, MD, USA) followed by the addition of the compound (0.3 % final DMSO). Plates were incubated overnight, and the supernatant was removed for quantification of Aβ peptides by sandwich enzyme-linked immunosorbent assay (ELISA) (see below). Cytotoxicity was evaluated using Cell-Titer 96 W AQueous One Solution Cell Proliferation Assay (MTS Assay, Promega) according to the manufacturer’s protocol.
Immunoprecipitation of carboxyl-terminally truncated Aβ peptides from 4 mL of H4 cell media was conducted using the anti-Aβ antibody 6E10 (epitope 3–8 of Aβ; Covance, Inc., Dedham, MA, USA) or 4G8 (epitope 18–22 of Aβ; Covance, Inc., Dedham, MA, USA) coupled to magnetic beads as described elsewhere. After elution of the immunoprecipitated Aβ peptides, the detection was performed on an UltraFlextreme MALDI-TOF/TOF instrument (Bruker Daltonics, Bremen, Germany).

[3] = system: γ-secretase with FAD PS1 mutations (H163R, M233L, R278I); assay: HEK cells overexpressing APPsw with FAD PS1 mutations
Protocol: Aβ peptide levels were quantified by sandwich ELISA using anti-Aβ38, anti-Aβ40, anti-Aβ42, (BioLegend, Dedham, MA, USA) or anti-Aβ37 for the capture and 4G8-horseradish peroxidase (HRP; BioLegend) for detection. When measuring Aβ37 and Aβ38, 4G8-HRP was added to the sample for overnight incubation, whereas it was added after the overnight incubation for 1 h for Aβ40 and Aβ42 measurements.
For cell-based assays, freshly collected samples of cultured cell supernatant were added to the plates and incubated at 4 °C for about 24 h. Detection was performed using SureBlue 3,3’,5,5’-tetramethylbenzidine (TMB) peroxidase substrate (KPL, Inc., Gaithersburg, MD, USA) and the plates read on a SpectraMax M5e microplate reader (Molecular Devices, Inc., Sunnyvale, CA, USA). GSM-treated samples were normalized to samples treated with DMSO alone (100 %) and 5 μM GSI, DAPT (0 %; Sigma-Aldrich). EC50 values were calculated from values reported as percentage of DMSO using nonlinear regression, based on a sigmoidal dose–response (variable slope) model.
The extractions were performed according to the methods described by Okochi et al.. Briefly, human embryonic kidney (HEK) cells stably expressing APPsw and PS1 derivatives were cultured to confluence in 10-cm dishes and the media replaced on the day of the experiment. Cells were treated with FRM-36143 in the presence of proteasome inhibitors (1 […], 100 nM MG262, and […]) for 1 h. Conditioned media were collected and cells were washed with ice-cold PBS and then immediately boiled for 2 min. A monitoring peptide (IVTL) and protease inhibitors were then added to the boiled samples, which were sonicated for 5 s three times and centrifuged at 100,000 × g for 1 h. The resultant supernatants were precipitated with TCA on ice for 15 min, centrifuged at 100,000 × g for 1 h, and filtered before being subjected to LC-MS/MS analysis to measure the tri-, tetra-, and pentapeptides as described elsewhere.

SMILES: COc1nc(C2=NOC[C@H](c3cc4ccccc4o3)N2)ccc1-n1cnc(C)c1 [FRM-36143, (R)-5-(benzofuran-2-yl)-3-(6-methoxy-5-(4-methyl-1H-imidazol-1-yl)pyridin-2-yl)-5,6-dihydro-4H-1,2,4-oxadiazine]
- pIC50 [1]: < 5.00
- Percentage change (vs. DMSO) Aβ1–33 [2]: 161%
- Percentage change (vs. DMSO) Aβ1–34 [2]: 125%
- Percentage change (vs. DMSO) Aβ1–37 [2]: 407%
- Percentage change (vs. DMSO) Aβ1–38 [2]: 126%
- Percentage change (vs. DMSO) Aβ1–39 [2]: 46%
- Percentage change (vs. DMSO) Aβ1–40 [2]: 26%
- Percentage change (vs. DMSO) Aβ1–42 [2]: 21%
- Percentage change (vs. DMSO) Aβ5–38 [2]: 150%
- Percentage change (vs. DMSO) Aβ5–40 [2]: 40%
- Normalized AUC Aβ1–33 ([2]; semi-quantitative): 2.9
- Normalized AUC Aβ1–34 ([2]; semi-quantitative): 0.5
- Normalized AUC Aβ1–37 ([2]; semi-quantitative): 23.6
- Normalized AUC Aβ1–38 ([2]; semi-quantitative): 15
- Normalized AUC Aβ1–39 ([2]; semi-quantitative): 1.6
- Normalized AUC Aβ1–40 ([2]; semi-quantitative): 10
- Normalized AUC Aβ1–42 ([2]; semi-quantitative): 0.4
- Normalized AUC Aβ5–37 ([2]; semi-quantitative): 1.9
- Normalized AUC Aβ5–38 ([2]; semi-quantitative): 1.5
- Normalized AUC Aβ5–40 ([2]; semi-quantitative): 1.2
- Reversal of the effect of FAD PS1 mutations on APP processing ([3]; HEK APPsw with PS1 H163R, M233L or R278I, Aβ42:Aβ40, Aβ38:Aβ42, VVIA/VVIAT): able to reverse the effect of the mutations studied
- Aβ38:Aβ42 ratio (fourth cleavage step) ([3]; PS1 R278I mutant): significant increase
- Aβ42:Aβ40 ratio ([3]; PS1 R278I mutant): remains unchanged

Reference: paper PMC5004293, “Characterization of FRM-36143 as a new γ-secretase modulator for the potential treatment of familial Alzheimer’s disease” (Alzheimer's Research & Therapy, 2016)
